The source of these data is patent US5378718A, “1,4-dihydropyridine derivatives” (Cedona Pharmaceuticals B.V., priority 1990, dated 1995).

One test has as its system contracted rat aorta. As to the kind of experiment: In vitro rat aorta assay, relaxation of KCl-contracted aorta strips. The test is classed as cell-based. Particulars: rat thoracic aorta strips contracted with 50 mM KCl, 1.25 mM CaCl2; concentration at which residual contraction is 50% of maximum. The method, then:
Strips of thoracial rat aortae (without aortic arch, helically cut; length 1-1.5 cm; width about 2 mm) were place in an organ bath [20 ml; Krebs Ringer medium bubbled with O2 /CO2 (95/5%) at 37` C.]. A resting tension of 0.5 g was applied and the preparations were equilibrated during 100 min (fresh buffer solution every 20 min). The strips were isotonically contracted with 50 mM KCl (equimolar part of NaCl in buffer omitted) in the presence of 1.25 mM CaCl2.
Drug-induced relaxation was tested at increasing concentration (half log steps), till maximal or full relaxation (corresponding to basal precontraction value of organ length) had been reached.
Responses were calculated as change in organ length relatively to maximal displacement by contraction, EC50 values corresponding to the drug concentration at which residual contraction is 50% of maximum.

The test system of a further test is arterial blood pressure. As to the kind of experiment: Anesthetized rabbit experiments, lowering of arterial blood pressure. Type of test: in vivo, New Zealand white rabbits. Set-up: key: Inactive: No decrease or decrease less than 5%; Active: Decrease between 5 and 40%; Very Active: Decrease greater than 40%. As to conditions: end of 10 min i.v. infusion at highest dose tested (150-200 μg×kg^-1×min^-1), decrease as percentage of basal value. As to the method:
[…]
Animals Anesthesia and Surgical Procedures
New Zealand white rabbits (2.5-3 kg) were anesthetized (30 mg×kg^-1 pentobarbitone, i.v., supplemetal doses as needed). Tracheotomy was performed, and an intra-tracheal cannula was inserted. No artificial ventilation was applied and body temperature was maintained at 37°-38° C.
Left ventricular pressure (LVP) was measured (millar Mikro-Tip catheter via the right carotid artery with transducer in the left ventricle). The LVP signal was differentiated electronically to obtain the rate of change of LVP (LV dP/dt). The heart rate (HR) was derived from the LVP pulse signal. The jugular vein was cannulated for infusion of the test compounds. Aortic blood pressure (SAP and DAP) was monitored (Gould-Statham pressure transducer) by inserting a polyethylene catheter filled with heparin (50 IU×ml^-1) through the femoral artery into the abdominal aorta. Heparin (150 IU×kg^-1, i.v.) was administered to prevent blood clotting.
After completion of surgical procedures, the rabbits were allowed to recover for 15 minutes before drug administration was started.
Infusion of Test Compounds and Test Protocol
Drugs were infused at constant rate (0.5 ml×min^-1) for 10 minutes at various doses, resulting in a typical dose range of 2.0, 20.0 and 200 μg×kg^-1 ×min^-1 (2.5 kg rabbit).
Due to poor solubility, 1 mg×ml^-1 solutions of all the compounds tested were prepared in Intralipid^(R) 10%, containing 10% (v/v) dimethyl sulfoxide (DMSO). […] At the infusion of lower doses, the 1 mg×ml^-1 stock solutions were diluted with Intralipid^(R) 10%.
The presented data are based on the effects obtained at the end of the 10 min infusion period at the highest dose tested (150-200 μg×kg^-1 'min^-1).
The indicated ratings are referring to the effects (decrease, defined as percentage of basal value before infusion of the drug) on arterial blood pressure as follows: […]

For `CCOC(=O)C1=C(C)NC(C)=C(C(=O)OC)C1c1ccccc1OCCCCO[N+](=O)[O-]` (stereo not shown) [Example XXIX, 2,6-Dimethyl-3-ethoxycarbonyl-5-methoxycarbonyl-4-[2-(4-nitroxybutoxy)phenyl]-1,4-dihydropyridine×2H2 O], in the test on contracted rat aorta, the midpoint of the response, the EC50, lay at 0.0026 µM.
The same measure, in the same setting: in the case of `CCOC(=O)C1=C(C)NC(C)=C(C(=O)OC)C1c1ccccc1OCC(C)(C)CO[N+](=O)[O-]` (stereo not shown) [Example XXIII, 2,6-Dimethyl-4-[2-(2,2-dimethyl-3-nitroxypropoxy)-phenyl]-3-ethoxycarbonyl-5-methoxycarbonyl-1,4-dihydro-pyridine×H2 O] it was 0.028 µM; in that of `CCOC(=O)C1=C(C)NC(C)=C(C(=O)OCC)C1c1ccccc1OCC(C)(C)CO[N+](=O)[O-]` [Example XXII, 3,5-Diethoxycarbonyl-2,6-dimethyl-4-[2-(2,2-dimethyl-3-nitroxypropoxy)-phenyl]-1,4-dihydropyridine], 0.06 µM; in that of `COC(=O)C1=C(C)NC(C)=C(C(=O)OC)C1c1ccccc1OCC(C)O[N+](=O)[O-]` (stereo not shown) [Example XXXIII, 3,5-Dimethoxycarbonyl-2,6-dimethyl-4-{2-[2-nitroxypropyloxy)phenyl}-1,4-dihydropyridine], 0.016 µM.
On to `COC(=O)C1=C(C)NC(C)=C(C(=O)OC)C1c1ccccc1OC[C@@H](C)CO[N+](=O)[O-]` [Example XXXVIII], for which, in the test with contracted rat aorta, it took 0.075 µM to reach a half-maximal effect (EC50).
On the same count and under the same terms, in the case of `COC(=O)C1=C(C)NC(C)=C(C(=O)OC)C1c1ccccc1OCCCCCCO[N+](=O)[O-]` [Example XXX, 3,5-Dimethoxycarbonyl-2,6-dimethyl-4-[2-(6-nitroxyhexyloxy)phenyl]-1,4-dihydropyridine] it was 0.009 µM.
Turning to `CCOc1cccc(C2C(C(=O)OC)=C(C)NC(C)=C2C(=O)OC)c1OCCO[N+](=O)[O-]` [Example XVIII, 3,5-Dimethoxycarbonyl-2,6-dimethyl-4-[3-ethoxy-2-(2-nitroxyethoxy)phenyl]-1,4-dihydropyridine×H2 O], the “Activity with regard to the lowering of blood pressure” value (shortened to “Activity with regard to the lowering”) in the test with arterial blood pressure is on record as “Active”.
In the case of `COC(=O)C1=C(C)NC(C)=C(C(=O)OC)C1c1cccc(OC)c1OCCO[N+](=O)[O-]` [Example XVII, 3,5-Dimethoxycarbonyl-2,6-dimethyl-4-[3-methoxy-2-(2-nitroxyethoxy)phenyl]-1,4-dihydropyridine×H2 O], in the test with arterial blood pressure, the “Activity with regard to the lowering” value is “Active”. Besides, in the test on contracted rat aorta, the EC50 (commonly the concentration needed to bring the measured effect to its halfway point) was found to be 0.088 µM.
In turn, `COC(=O)C1=C(C)NC(C)=C(C(=O)OC)C1c1ccccc1OC1CCCCC1O[N+](=O)[O-]` (stereo not shown) [Example XXXVII, 3,5-Dimethoxycarbonyl-2,6-dimethyl-4-[2-(2-nitroxycyclohexoxy)phenyl]-1,4-dihydropyridine×methanol] registered an EC50 in the test on contracted rat aorta of 0.068 µM.
As for `COC(=O)C1=C(C)NC(C)=C(C(=O)OC)C1c1cc(Br)ccc1OCCO[N+](=O)[O-]` [XIX, 4-[5-Bromo-2-(2-nitroxyethoxy)phenyl]-3,5-dimethoxy-carbonyl-2,6-dimethyl-1,4-dihydropyridine], the “Activity with regard to the lowering” value with arterial blood pressure was “Active”. Moreover, a half-maximal response with contracted rat aorta (EC50) required 0.08 µM.
In the test with contracted rat aorta, `CCOC(=O)C1=C(C)NC(C)=C(C(=O)OC)C1c1ccccc1OCCCO[N+](=O)[O-]` (stereo not shown) [Example XXVI, 2,6-Dimethyl-3-ethoxycarbonyl-5-methoxycarbonyl-4-[2-(3-nitroxypropoxy)phenyl]-1,4-dihydropyridine] came in with an EC50 of 0.012 µM.
For “2,6-Dimethyl-3-methyloxycarbonyl-5-methyloxycarbonyl-4-[2-(nitroxyhexyloxyphenyl)]-1,4-dihydropyridine [Example XXXI]”, the “Activity with regard to the lowering” value with arterial blood pressure is “Active”.
`CCOC(=O)C1=C(C)NC(C)=C(C(=O)OCC)C1c1ccccc1OC[C@H]1CC[C@H](CO[N+](=O)[O-])CC1` [Example XXIV, 3,5-Diethoxycarbonyl-2,6-dimethyl-4-[2-[(4-nitroxymethyl-(trans)-cyclohexyl)methoxy]phenyl]-1,4-dihydropyridine] registered an EC50 in the test with contracted rat aorta of 0.0078 µM.
The same measure, in the same setting: in the case of `COC(=O)C1=C(C)NC(C)=C(C(=O)OC)C1c1ccccc1OC[C@H]1CC[C@H](CO[N+](=O)[O-])CC1` [Example XXXII, 3,5-Dimethoxycarbonyl-2,6-dimethyl-4-{2-[4-nitroxymethyl(trans)cyclohexylmethoxy]phenyl}-1,4-dihydropyridine] it was 0.0065 µM; in that of `CCOC(=O)C1=C(C)NC(C)=C(C(=O)OCC)C1c1ccccc1OCCCO[N+](=O)[O-]` [Example XXVIII], 0.0077 µM; in that of `COC(=O)C1=C(C)NC(C)=C(C(=O)OC)C1c1ccccc1OCCCCCCCCO[N+](=O)[O-]` [Example XXXV, 2,6-Dimethyl-3,5-dimethoxycarbonyl-4-[2-(8-nitroxyoctyloxy)phenyl]-1,4-dihydropyridine], 0.005 µM.
In the case of `COC(=O)C1=C(C)NC(C)=C(C(=O)OC)C1c1ccccc1OCCCO[N+](=O)[O-]` [Example XXVII, 3,5-Dimethoxycarbonyl-2,6-dimethyl-4-[2-(3-nitroxypropoxy)phenyl]-1,4-dihydropyridine], the EC50 with contracted rat aorta was determined as 0.0057 µM.
Consider `CCOC(=O)C1=C(C)NC(C)=C(C(=O)OCC)C1c1ccc(OC(=O)CCCO[N+](=O)[O-])cc1` [Example I, 3,5-Diethoxycarbonyl-2,6-dimethyl-4-[4-(3-nitroxypropyl)carbonyloxy]phenyl-1,4-dihydropyridine], for which, in the test on arterial blood pressure, the “Activity with regard to the lowering” value is “Active”.
`COC(=O)C1=C(C)NC(C)=C(C(=O)OC)C1c1cc([N+](=O)[O-])ccc1OCCO[N+](=O)[O-]` [Example XIV, 3,5-Dimethoxycarbonyl-2,6-dimethyl-4-[2-(2-nitroxy-ethoxy)-5-nitrophenyl]-1,4-dihydropyridine] returned an EC50 in the test with contracted rat aorta of 0.08 µM.
Still for that read-out and setting: in the case of `CCOC(=O)C1=C(C)NC(C)=C(C(=O)OCC)C1c1ccccc1OCCCCCCCCCCO[N+](=O)[O-]` [Example XXV, 3,5-Diethoxycarbonyl-2,6-dimethyl-4-[2-(10-nitroxy-decyloxy)phenyl]-1,4-dihydropyridine] it was 0.067 µM; in that of `CCOC(=O)C1=C(C)NC(C)=C(C(=O)OCC)C1c1ccccc1OCCO[N+](=O)[O-]` [Example XXI, 3,5-Diethoxycarbonyl-2,6-dimethyl-4-[2-(2-nitroxy-ethoxy)phenyl]-1,4-dihydropyridine], 0.014 µM.
For the molecule `CCOC(=O)C1=C(C)NC(C)=C(C(=O)OCC)C1c1ccccc1OCCOCCOCCO[N+](=O)[O-]` [Example XX, 3,5-Diethoxycarbonyl-2,6-dimethyl-4-(2-{2-[2-(2-nitroxy-ethoxy)ethoxy]ethoxy}-phenyl)-1,4-dihydropyridine], the “Activity with regard to the lowering” value in the test with arterial blood pressure is on record as “Active”. For the same molecule, the response with contracted rat aorta was half-maximal at 0.038 µM (EC50).
Turning to `COC(=O)C1=C(C)NC(C)=C(C(=O)OC)C1c1ccccc1OCCO[N+](=O)[O-]` [Example VII, 3,5-Dimethoxycarbonyl-2,6-dimethyl-4-[2-(2-nitroxy-ethoxy)phenyl]-1,4-dihydropyridine], the midpoint of the response with contracted rat aorta, the EC50, lay at 0.059 µM.
Take `COC(=O)C1=C(C)NC(C)=C(C(=O)OC)C1c1cc(Cl)ccc1OCCO[N+](=O)[O-]` [Example XV]: the “Activity with regard to the lowering” value in the test on arterial blood pressure is reported as “Active”. A half-maximal effect in the test with contracted rat aorta (EC50) was put at 0.085 µM.
